system: HT-29; assay: Cytotoxicity against ATM proficient human HT-29 cells assessed as reduction in cell viability incubated for 72 hrs by MTT assay; format: functional, cell-based; settings: HT-29, 72 h

| SMILES | IC50 |
| --- | --- |
| CC(C)n1c(=O)n(C)c2cnc3cc(F)c(-c4ccc(OCCCN5CCCCC5)nc4)cc3c21 [AZD-1390] | > 10000 nM |

biological target: Serine/threonine-protein kinase ATR (Homo sapiens, UniProt Q13535); assay: Inhibition of human recombinant full length ATR using GST-cMyc-p53 as substrate incubated for 40 mins in presence of ATP by HTRF assay; settings: not given
Sequence (Q13535 whole entry): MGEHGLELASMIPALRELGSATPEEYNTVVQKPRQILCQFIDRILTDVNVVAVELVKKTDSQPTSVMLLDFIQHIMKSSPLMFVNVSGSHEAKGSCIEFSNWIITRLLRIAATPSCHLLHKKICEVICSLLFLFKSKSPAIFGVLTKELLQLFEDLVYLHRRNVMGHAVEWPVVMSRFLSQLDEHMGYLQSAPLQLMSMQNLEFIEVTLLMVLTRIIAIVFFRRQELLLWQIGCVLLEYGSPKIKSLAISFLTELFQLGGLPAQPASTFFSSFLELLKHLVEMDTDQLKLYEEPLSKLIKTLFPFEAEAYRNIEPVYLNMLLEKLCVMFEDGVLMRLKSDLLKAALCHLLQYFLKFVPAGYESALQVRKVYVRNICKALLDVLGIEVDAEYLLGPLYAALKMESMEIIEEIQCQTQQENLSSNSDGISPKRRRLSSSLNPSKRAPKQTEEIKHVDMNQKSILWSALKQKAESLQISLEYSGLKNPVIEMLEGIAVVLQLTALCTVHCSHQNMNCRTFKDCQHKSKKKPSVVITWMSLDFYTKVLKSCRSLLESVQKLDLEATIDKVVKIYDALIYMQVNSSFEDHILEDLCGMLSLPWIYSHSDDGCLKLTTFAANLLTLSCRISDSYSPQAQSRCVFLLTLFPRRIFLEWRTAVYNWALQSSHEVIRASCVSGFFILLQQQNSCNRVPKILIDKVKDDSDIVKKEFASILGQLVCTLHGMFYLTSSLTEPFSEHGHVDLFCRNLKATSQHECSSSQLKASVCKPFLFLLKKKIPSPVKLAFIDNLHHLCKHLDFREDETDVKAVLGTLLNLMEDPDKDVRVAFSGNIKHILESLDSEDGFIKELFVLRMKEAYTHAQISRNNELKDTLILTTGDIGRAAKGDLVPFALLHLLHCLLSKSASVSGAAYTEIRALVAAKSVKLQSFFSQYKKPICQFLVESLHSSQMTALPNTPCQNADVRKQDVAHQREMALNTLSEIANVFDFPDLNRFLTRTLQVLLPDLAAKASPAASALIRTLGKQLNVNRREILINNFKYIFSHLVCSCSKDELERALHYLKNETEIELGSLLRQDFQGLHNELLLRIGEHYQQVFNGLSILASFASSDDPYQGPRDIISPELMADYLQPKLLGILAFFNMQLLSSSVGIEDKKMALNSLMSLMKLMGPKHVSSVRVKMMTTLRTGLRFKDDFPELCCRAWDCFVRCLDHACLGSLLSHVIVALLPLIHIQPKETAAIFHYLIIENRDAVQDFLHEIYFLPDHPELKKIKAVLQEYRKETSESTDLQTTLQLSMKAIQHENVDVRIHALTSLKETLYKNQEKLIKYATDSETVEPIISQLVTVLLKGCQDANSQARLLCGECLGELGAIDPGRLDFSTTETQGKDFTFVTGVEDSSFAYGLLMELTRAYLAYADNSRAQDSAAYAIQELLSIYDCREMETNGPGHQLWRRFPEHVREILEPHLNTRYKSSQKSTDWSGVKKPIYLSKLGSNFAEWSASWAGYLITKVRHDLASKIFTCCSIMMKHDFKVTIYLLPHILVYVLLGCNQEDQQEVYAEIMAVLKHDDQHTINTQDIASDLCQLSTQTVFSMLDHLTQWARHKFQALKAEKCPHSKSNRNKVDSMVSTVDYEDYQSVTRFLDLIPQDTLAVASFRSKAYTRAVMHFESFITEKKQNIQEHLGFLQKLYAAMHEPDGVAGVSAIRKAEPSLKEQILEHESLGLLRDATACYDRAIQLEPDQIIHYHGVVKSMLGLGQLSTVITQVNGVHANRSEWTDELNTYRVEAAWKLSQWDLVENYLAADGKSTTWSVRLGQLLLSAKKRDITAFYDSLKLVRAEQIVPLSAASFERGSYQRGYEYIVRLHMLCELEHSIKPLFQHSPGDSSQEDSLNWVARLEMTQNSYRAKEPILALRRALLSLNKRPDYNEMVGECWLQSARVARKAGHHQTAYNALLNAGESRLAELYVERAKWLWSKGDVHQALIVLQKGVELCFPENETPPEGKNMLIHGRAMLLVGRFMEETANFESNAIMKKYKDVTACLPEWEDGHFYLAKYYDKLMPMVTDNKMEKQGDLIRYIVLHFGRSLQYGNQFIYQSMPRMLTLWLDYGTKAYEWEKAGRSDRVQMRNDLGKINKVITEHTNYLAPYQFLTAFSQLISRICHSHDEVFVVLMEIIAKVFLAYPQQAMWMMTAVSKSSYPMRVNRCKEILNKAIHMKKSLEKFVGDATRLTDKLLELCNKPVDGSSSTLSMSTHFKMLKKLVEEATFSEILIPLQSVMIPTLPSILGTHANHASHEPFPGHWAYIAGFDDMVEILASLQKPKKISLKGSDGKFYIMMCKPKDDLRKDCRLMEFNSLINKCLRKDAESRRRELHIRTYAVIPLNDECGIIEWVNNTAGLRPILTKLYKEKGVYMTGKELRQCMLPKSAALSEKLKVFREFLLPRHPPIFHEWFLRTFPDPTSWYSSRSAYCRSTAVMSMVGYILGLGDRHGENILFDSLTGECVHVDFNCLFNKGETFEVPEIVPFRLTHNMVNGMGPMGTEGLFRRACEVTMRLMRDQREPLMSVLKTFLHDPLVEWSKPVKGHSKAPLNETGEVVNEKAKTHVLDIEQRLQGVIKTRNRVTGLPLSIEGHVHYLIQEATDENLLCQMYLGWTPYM

| SMILES | IC50 |
| --- | --- |
| C[C@@H]1COCCN1c1nc(-c2cc(C(F)(F)F)cc3[nH]ccc23)nc2ccc(-c3ccnn3C)cc12 | > 10000 nM |
| C[C@@H]1COCCN1c1nc(-c2cccc3[nH]ccc23)nc2ccc(-c3ccoc3)cc12 | 2370 nM |
| C[C@@H]1COCCN1c1nc(-c2cnc3[nH]ccc3c2)nc2ccc(-c3ccnn3C)cc12 | 1770 nM |
| C[C@@H]1COCCN1c1nc(-c2cn[nH]c2)nc2ccc(-c3ccnn3C)cc12 | > 10000 nM |
| C[C@@H]1COCCN1c1nc(-c2cccc3[nH]ccc23)nc2ccc(-c3ccncc3)cc12 | 275 nM |
| Cn1nccc1-c1ccc2nc(-c3cccc4[nH]ccc34)nc(N3CCOCC3)c2c1 | 89 nM |
| Cc1noc(C)c1-c1ccc2nc(-c3cccc4[nH]ccc34)nc(N3CCOC[C@H]3C)c2c1 | 32 nM |
| Cn1nccc1-c1ccc2nc(-c3cccc4[nH]ccc34)nc(N3CC4CCC(C3)O4)c2c1 | 45 nM |
| Cn1nccc1-c1ccc2nc(-c3cccc4[nH]ccc34)nc(N3CCC(N)C3)c2c1 (configuration not stated) | > 10000 nM |
| CCOC(c1ccc2nc(-c3cccc4[nH]ccc34)nc(N3CCOC[C@H]3C)c2c1)n1cccn1 (some centres not stated) | 901 nM |
| C[C@@H]1COCCN1c1nc(-c2cccc3[nH]ccc23)nc2ccc(-c3ccccc3)cc12 | 2980 nM |
| C[C@@H]1COCCN1c1nc(-c2cnn(C3CCNCC3)c2)nc2ccc(-c3ccnn3C)cc12 | > 10000 nM |
| Cn1nccc1-c1ccc2nc(-c3cccc4[nH]ccc34)nc(N3CCC[C@H](N)C3)c2c1 | > 10000 nM |
| C[C@@H]1COCCN1c1nc(-c2c[nH]c3ncccc23)nc2ccc(-c3ccnn3C)cc12 | 3320 nM |
| Cn1nccc1-c1ccc2nc(-c3cccc4[nH]ccc34)nc(N3CCN(S(C)(=O)=O)CC3)c2c1 | > 10000 nM |
| C[C@@H]1COCCN1c1nc(-c2cccc3[nH]ccc23)nc2ccc(-c3ccnn3C3CCCCO3)cc12 (some centres not stated) | 435 nM |
| C[C@@H]1COCCN1c1nc(-c2c[nH]c3ncc(F)cc23)nc2ccc(-c3ccnn3C)cc12 | 3550 nM |
| Cn1nccc1-c1ccc2nc(-c3cccc4[nH]ccc34)nc(N3CC4CC3CO4)c2c1 (configuration not stated) | 609 nM |
| C[C@@H]1COCCN1c1nc(-c2cccc3[nH]ccc23)nc2ccc(-c3ccc(N4CCOCC4)nc3)cc12 | 578 nM |
| C[C@@H]1COCCN1c1nc(-c2cccc3[nH]ccc23)nc2ccc(-c3cnn(C)c3)cc12 | 700 nM |
| COC(=O)C1CN(c2nc(-c3cccc4[nH]ccc34)nc3ccc(-c4ccnn4C)cc23)CCO1 (configuration not stated) | > 10000 nM |

| SMILES | IC50 |
| --- | --- |
| C[C@@H]1CNCCN1c1nc(-c2cccc3[nH]ccc23)nc2ccc(-c3ccnn3C)cc12 | > 10000 nM |
| C[C@@H]1COCCN1c1nc(-c2ccnc3[nH]ccc23)nc2ccc(-c3ccnn3C)cc12 | 115 nM |
| C[C@@H]1COCCN1c1nc(-c2cc(F)cc3[nH]ccc23)nc2ccc(-c3ccnn3C)cc12 | 96 nM |
| C[C@@H]1COCCN1c1nc(-c2cccc3[nH]ccc23)nc2ccc(-c3ccc(=O)n(C)c3)cc12 | 194 nM |
| Cn1nccc1-c1ccc2nc(-c3cccc4[nH]ccc34)nc(N3CC[C@H](N)C3)c2c1 | > 10000 nM |
| Cn1nccc1-c1ccc2nc(-c3cccc4[nH]ccc34)nc(N3CCC[C@@H](N)C3)c2c1 | > 10000 nM |
| Cc1ncc(-c2ccc3nc(-c4cccc5[nH]ccc45)nc(N4CCOC[C@H]4C)c3c2)s1 | 2440 nM |
| C[C@@H]1COCCN1c1nc(-c2cccc3[nH]ccc23)nc2ccc(-c3cccnc3)cc12 | 183 nM |
| C[C@@H]1COCCN1c1nc(-c2cccc3[nH]ccc23)nc2ccc(-c3cncn3C)cc12 | 33 nM |
| C[C@@H]1COCCN1c1nc(-c2cccc3[nH]ccc23)nc2ccc(-c3ccsc3)cc12 | 2790 nM |
| Cc1ccc2[nH]ncc2c1-c1nc(N2CCOC[C@H]2C)c2cc(-c3ccnn3C)ccc2n1 | > 10000 nM |
| CC(C)n1nccc1-c1ccc2nc(-c3cccc4[nH]ccc34)nc(N3CCOC[C@H]3C)c2c1 | 83 nM |
| C[C@@H]1COCCN1c1nc(-c2cccc3[nH]ccc23)nc2ccc(-c3cccn3C)cc12 | 289 nM |
| C[C@H]1COCCN1c1nc(-c2cccc3[nH]ccc23)nc2ccc(-c3ccnn3C)cc12 | 700 nM |
| CCn1nccc1-c1ccc2nc(-c3cccc4[nH]ccc34)nc(N3CCOC[C@H]3C)c2c1 | 18 nM |
| Cn1nccc1-c1ccc2nc(-c3cccc4[nH]ccc34)nc(N3C4CCC3COC4)c2c1 | 25 nM |
| C[C@@H]1COCCN1c1nc(-c2c[nH]c3ccccc23)nc2ccc(-c3ccnn3C)cc12 | 215 nM |
| C[C@@H]1CN(c2nc(-c3cccc4[nH]ccc34)nc3ccc(-c4ccnn4C)cc23)C[C@H](C)O1 | > 10000 nM |
| C[C@@H]1COCCN1c1nc(-c2cc[nH]n2)nc2ccc(-c3ccnn3C)cc12 | > 10000 nM |
| C[C@@H]1COCCN1c1nc(-c2cccc3[nH]ccc23)nc2ccc(-c3ccc(C#N)nc3)cc12 | > 10000 nM |

From ChEMBL document CHEMBL5154749 (Eur J Med Chem, 2022)
